# Test results published in patent US5072032A, “Preparation and use of thiophosphonates and thio-analogues of phosphonoformic acid” (priority 1989, dated 1991).
# Read-outs that look alike come from different tables or passages of the source.
# How the values were obtained:
# EBV DNA polymerase = molecular target: T1, EBV DNA polymerase (Epstein-Barr virus, UniProt P03198); test: Viral polymerase inhibition, EBV; assay type: biochemical
# T1 construct: made in house
# Source text: (§1) Viral DNA polymerases (HSV-1, HSV-2, EBV) were purified by previously published methods (Derce, D. K. F. Bastow, and Y. C. Cheng (1982) J. Boil. Chem. 257:10251-10260; Ostrander, M., and Y. C. Cheng (1980) Biochim. Biophys. Acta 609:232-245; Tan, R. S., A. Datta. and Y. C. Cheng (1982) J. Virol. 44:893-899). These procedures generally included sequential chromatography on DEAE-cellulose. HIV reverse transcriptase was purified by antibody affinity column chromatography as descrbed (Starnes. M. C. and Y. C. Cheng (1989) J. Biol. Chem. 264:7073-7077). The purified enzymes were dialyzed against and stored in 50 mM Tris-HCl (pH 7.5) containing 1 mM each of DTT, EDTA and PMSF plus 30% glycerol. Mammalian DNA polymerases alpha, beta, gamma, and delta were partially purified from K562 celles (chronic myelogenous leukemia tissue culture line). Briefly, washed cell pellets were extracted and passed throgh DEAE-cellulose in the presence of 300 mM KPO4 (pH 7.5) as previously described (Starnes, M. C., and Y. C. Cheng (1987) J. Biol. Chem 282:988-981) to remove DNA. The column flow-through fractions were dialyzed against buffer which contained 50 mM Tris-HCl (pH 7.5), and fractionated on a single-stranded DNA-cellulose column with a 0-1M KCl gradient.
# Standard assays were run at 37° C. and contained: 50 mM Tris, pH b 8.0, 0.5 mM DTT, 8 mM MgCl2, 100 μg/mL BSA, 150 μg/mL gapped calf thymus DNA, 100 μM each dATP, dCTP, dGTP, 10 .parallel.M [^3 H]-dTTP, and 1-5 .parallel.L enzyme in a final volume of 50 .parallel.L. Modified assays for pH dependence inhibition studies with PFA (1) and α--oxo phosphonates (4 and 5) contained 50 mM Hepes, pH 8.2-6.5, 8 mM MgCl2, 100 mM KCl, 100 μg/ml BSA, 0.5 A260 units/ml of poly(rA).(dT)10, 100 μM [^3 H]dTTP, and 1.5 .parallel.L enzyme in a final volume of 50 μL. Samples were processed as described above.
# human DNA polymerase α = molecular target: T2, human DNA polymerase α (Homo sapiens, UniProt P09884); test: Human DNA polymerase inhibition, alpha; assay type: biochemical; conditions: for remaining activity at 100 µM: read-out: % Control at 100 μM ± S.D.
# T2 construct: Mammalian DNA polymerases alpha, beta, gamma, and delta were partially purified from K562 celles; endogenous in cells; host or cells: K562 (chronic myelogenous leukemia tissue culture line)
# Source text: as §1
# (§2) In accordance with the teaching of the present invention similar enzyme inhibition assays were also conducted with respect to mammalian enzymes, more particularly, human DNA polymerase.
# human DNA polymerase δ = test: Human DNA polymerase inhibition, delta; assay type: biochemical; conditions: Pol δ, "activated" DNA; for IC50: read-out: ID50 (the source's name)
# Source text: as §1, §2
# HIV-1 (HTLV-IIIB) = test: HIV inhibition in cell culture, p24 antigen capture assay in H9 lymphocytes; assay type: cell-based
# Description: (§3) In addition to testing the activity of TPFA against HIV enzyme, the activity against the virus itself was also determined in accordance with the following protocol. The experimental protocol involved incubatino of H9 lymphocytes (3.5×10^6 cells/ml) in the presence or absence of HIV-1 (HTLV-IIIB) for one hour at 37° C. Cells were washed thoroughly to remove unabsorbed virions and re-suspended at 4×10^5 cells/ml in culture medium. Aliquots (1 ml) were placed in wells of 24 well culture plates containing any equal volume of test compound (diluted in culture medium). After incubation for three days at 37° C., cell density of uninfected cultures was determined to assess toxicity of the test compound. A p24 antigen capture was used to determine the level of HIV infection in HIV treated cultures. The ability of test compounds to inhibit HIV replication was measured at different concentrations relative to infected, untreated cultures. Test compounds were considered to be active if p24 levels were <70% of infected, untreated cultures. Cytotoxicity in uninfect4ed H9 cells was not detected.
# [1] = Toxicity: cell density of uninfected H9 cultures; assay type: cell-based; conditions: human, h9 cells, 3 days, read-out: Cell Survival (%)
# Description: as §3
# uninfected H9 cells = test: Toxicity: cell density of uninfected H9 cultures; assay type: cell-based; conditions: 3 days
# Description: as §3
# HSV-1 = conditions: reported by Hutchinson et al.; cited from earlier work
# [2] = Human immunodeficiency virus 1, IIIB, H9, 72 h, read-out: p24 Ave (%)
# T2 sequence (P09884 whole entry): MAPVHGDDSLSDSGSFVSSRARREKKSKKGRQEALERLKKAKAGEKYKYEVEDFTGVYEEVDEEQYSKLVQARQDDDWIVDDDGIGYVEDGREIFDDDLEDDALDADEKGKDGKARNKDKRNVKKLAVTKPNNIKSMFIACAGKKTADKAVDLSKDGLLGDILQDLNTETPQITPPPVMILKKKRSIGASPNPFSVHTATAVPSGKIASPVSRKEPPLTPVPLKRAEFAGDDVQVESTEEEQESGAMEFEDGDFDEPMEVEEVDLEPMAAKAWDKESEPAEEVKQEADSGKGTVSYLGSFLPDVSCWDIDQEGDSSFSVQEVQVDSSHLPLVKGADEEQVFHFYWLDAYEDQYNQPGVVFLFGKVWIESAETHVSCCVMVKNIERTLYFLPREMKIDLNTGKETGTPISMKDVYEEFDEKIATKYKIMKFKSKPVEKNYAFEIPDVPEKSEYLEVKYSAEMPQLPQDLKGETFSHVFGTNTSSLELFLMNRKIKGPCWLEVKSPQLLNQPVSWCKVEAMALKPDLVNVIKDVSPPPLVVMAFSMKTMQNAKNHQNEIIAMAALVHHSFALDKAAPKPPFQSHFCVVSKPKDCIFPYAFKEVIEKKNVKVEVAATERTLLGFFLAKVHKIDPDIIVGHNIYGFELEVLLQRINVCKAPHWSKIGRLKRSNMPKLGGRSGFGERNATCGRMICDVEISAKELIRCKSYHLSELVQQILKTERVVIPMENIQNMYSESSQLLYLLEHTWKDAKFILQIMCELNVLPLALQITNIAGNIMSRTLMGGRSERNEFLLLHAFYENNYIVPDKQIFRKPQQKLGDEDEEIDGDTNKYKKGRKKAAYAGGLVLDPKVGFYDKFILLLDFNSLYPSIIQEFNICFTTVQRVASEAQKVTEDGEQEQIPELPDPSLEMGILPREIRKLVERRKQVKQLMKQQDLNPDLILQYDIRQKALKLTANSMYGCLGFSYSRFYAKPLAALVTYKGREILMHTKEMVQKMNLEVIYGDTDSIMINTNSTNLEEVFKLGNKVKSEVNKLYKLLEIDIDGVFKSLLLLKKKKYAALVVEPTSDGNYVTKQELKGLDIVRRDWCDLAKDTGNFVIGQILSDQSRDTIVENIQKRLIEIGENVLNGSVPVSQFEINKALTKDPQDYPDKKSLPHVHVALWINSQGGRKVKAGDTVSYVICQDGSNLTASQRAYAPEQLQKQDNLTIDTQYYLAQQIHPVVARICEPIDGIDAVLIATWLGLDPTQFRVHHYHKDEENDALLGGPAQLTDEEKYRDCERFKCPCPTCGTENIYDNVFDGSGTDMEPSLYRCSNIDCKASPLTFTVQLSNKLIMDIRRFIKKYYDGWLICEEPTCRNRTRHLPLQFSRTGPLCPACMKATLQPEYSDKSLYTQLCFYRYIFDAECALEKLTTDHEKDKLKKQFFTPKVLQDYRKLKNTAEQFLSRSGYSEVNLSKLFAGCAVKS
# T2 sequence (Q14181 whole entry partner): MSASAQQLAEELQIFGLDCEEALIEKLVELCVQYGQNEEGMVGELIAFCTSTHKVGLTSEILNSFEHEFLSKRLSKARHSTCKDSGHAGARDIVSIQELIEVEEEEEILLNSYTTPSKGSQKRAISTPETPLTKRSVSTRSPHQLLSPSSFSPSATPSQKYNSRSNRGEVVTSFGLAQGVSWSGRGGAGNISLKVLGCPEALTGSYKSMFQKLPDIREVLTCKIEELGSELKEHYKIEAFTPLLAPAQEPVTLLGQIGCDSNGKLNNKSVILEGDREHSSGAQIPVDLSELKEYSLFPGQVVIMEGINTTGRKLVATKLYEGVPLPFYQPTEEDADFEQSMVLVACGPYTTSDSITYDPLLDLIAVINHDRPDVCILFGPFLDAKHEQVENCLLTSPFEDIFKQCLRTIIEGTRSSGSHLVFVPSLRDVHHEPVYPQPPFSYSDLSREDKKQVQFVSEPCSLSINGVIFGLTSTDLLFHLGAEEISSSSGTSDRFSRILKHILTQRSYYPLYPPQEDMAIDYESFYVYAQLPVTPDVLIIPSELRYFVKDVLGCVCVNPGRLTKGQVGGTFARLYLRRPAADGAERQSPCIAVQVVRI
# T2 sequence (P49642 whole entry partner): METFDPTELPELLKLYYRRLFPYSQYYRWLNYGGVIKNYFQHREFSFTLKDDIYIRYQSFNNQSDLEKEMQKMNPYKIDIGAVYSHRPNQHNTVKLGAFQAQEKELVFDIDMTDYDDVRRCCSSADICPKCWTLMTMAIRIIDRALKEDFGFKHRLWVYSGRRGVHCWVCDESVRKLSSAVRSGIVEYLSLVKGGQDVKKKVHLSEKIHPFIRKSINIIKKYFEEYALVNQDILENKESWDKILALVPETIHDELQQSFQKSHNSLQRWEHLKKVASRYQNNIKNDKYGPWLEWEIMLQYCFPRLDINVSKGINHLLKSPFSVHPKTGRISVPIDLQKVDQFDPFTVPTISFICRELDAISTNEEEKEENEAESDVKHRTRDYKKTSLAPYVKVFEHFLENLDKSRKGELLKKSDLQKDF
# T2 sequence (P49643 whole entry partner): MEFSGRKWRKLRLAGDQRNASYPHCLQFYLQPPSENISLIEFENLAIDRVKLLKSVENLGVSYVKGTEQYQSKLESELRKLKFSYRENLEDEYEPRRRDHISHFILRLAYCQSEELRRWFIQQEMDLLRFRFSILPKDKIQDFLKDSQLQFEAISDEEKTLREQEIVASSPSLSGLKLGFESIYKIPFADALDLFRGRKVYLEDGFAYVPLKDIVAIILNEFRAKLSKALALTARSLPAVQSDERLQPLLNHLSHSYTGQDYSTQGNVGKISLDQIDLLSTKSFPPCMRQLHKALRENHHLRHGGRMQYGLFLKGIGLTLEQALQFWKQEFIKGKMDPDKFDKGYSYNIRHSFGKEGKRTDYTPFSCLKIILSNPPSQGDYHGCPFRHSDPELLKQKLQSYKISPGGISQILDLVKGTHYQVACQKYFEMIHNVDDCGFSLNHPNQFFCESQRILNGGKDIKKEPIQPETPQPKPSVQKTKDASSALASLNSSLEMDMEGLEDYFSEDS
# T1 sequence (P03198 whole entry): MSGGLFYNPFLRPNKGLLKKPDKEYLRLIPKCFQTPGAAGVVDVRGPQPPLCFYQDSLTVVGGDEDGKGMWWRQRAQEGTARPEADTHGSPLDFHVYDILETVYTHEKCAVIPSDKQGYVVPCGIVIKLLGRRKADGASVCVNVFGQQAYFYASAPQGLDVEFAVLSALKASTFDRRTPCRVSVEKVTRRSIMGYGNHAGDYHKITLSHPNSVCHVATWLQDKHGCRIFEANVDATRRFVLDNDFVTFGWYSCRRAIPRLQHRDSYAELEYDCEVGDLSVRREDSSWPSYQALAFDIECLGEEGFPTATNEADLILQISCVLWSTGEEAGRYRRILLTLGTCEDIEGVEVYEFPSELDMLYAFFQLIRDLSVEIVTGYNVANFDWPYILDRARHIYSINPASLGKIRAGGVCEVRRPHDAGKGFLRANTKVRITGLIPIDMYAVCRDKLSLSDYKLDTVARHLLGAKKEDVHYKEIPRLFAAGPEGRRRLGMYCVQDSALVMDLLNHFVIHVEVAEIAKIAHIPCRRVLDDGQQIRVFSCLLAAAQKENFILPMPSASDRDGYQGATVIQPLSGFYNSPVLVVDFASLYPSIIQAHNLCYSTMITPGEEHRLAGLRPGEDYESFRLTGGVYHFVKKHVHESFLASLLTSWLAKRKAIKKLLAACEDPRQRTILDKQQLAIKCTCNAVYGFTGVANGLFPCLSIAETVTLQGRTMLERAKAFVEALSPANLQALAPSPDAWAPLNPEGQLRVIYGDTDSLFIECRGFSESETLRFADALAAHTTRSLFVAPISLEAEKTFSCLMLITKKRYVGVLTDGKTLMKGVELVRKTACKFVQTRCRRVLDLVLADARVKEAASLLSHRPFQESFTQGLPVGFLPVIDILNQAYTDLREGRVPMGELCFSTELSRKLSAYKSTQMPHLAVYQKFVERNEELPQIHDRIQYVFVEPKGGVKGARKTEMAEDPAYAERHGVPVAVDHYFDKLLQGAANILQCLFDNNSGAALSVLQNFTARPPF
structure (smiles),measurement,setting,value
"O=C(O)P(=O)(O)O [PFA, phosphonoformic acid]",IC50,"EBV DNA polymerase; EBV, ""activated"" DNA, read-out: ID50 (the source's name)",1 µM
same,remaining activity at 100 µM,"human DNA polymerase α; Pol α, 100 μM, ""activated"" DNA",16 ± 2%
same,IC50,"human DNA polymerase α; Pol α, ""activated"" DNA, read-out: ID50 (the source's name)",31 µM
same,% Control at 100 μM ± S.D.,human DNA polymerase δ,36 ± 3%
same,IC50,human DNA polymerase δ,71 µM
same,activity at 1.9 µg/mL,"HIV-1 (HTLV-IIIB); Human immunodeficiency virus 1, IIIB, H9, 72 h, drug conc. 1.9 μg/mL, % of infected untreated control p24, read-out: p24 Ave (%)",88%
same,activity at 7.5 µg/mL,"HIV-1 (HTLV-IIIB); Human immunodeficiency virus 1, IIIB, H9, 72 h, drug conc. 7.5 μg/mL, % of infected untreated control p24, read-out: p24 Ave (%)",35%
same,activity at 30 µg/mL,"HIV-1 (HTLV-IIIB); Human immunodeficiency virus 1, IIIB, H9, 72 h, drug conc. 30 μg/mL, % of infected untreated control p24, read-out: p24 Ave (%)",10%
same,activity at 120 µg/mL,"HIV-1 (HTLV-IIIB); Human immunodeficiency virus 1, IIIB, H9, 72 h, drug conc. 120 μg/mL, % of infected untreated control p24, read-out: p24 Ave (%)",-2%
same,Inhibition Score,HIV-1 (HTLV-IIIB); drug conc. 7.5 μg/mL,** (**25-49% control p24)
same,Inhibition Score,HIV-1 (HTLV-IIIB); drug conc. 30 μg/mL,*** (***<25% control p24)
same,Inhibition Score,HIV-1 (HTLV-IIIB); drug conc. 120 μg/mL,*** (***<25% control p24)
same,viability at 72 h,[1]; drug conc. 1.9 μg/mL,98%
same,viability at 72 h,[1]; drug conc. 7.5 μg/mL,96%
same,viability at 72 h,[1]; drug conc. 30 μg/mL,92%
same,viability at 72 h,[1]; drug conc. 120 μg/mL,102%
same,Toxicity,uninfected H9 cells; drug conc. 1.9 μg/mL,non-T
same,Toxicity,uninfected H9 cells; drug conc. 7.5 μg/mL,non-T
same,Toxicity,uninfected H9 cells; drug conc. 30 μg/mL,non-T
same,Toxicity,uninfected H9 cells; drug conc. 120 μg/mL,non-T
same,relative ID50 values with respect to HSV-1,HSV-1,12
"O=C(O)P(O)(O)=S [TPFA, thiophosphonoformic acid]",IC50,EBV DNA polymerase,70 µM
same,effectiveness of TPFA relative to PFA,"EBV DNA polymerase; EBV enzyme, ratio of ID50 values of Table I",more than seventy times less effective
same,IC50,human DNA polymerase α,> 100 µM
same,toxicity to the human enzyme relative to PFA (therapeutic index),"human DNA polymerase α; HIV enzyme and human enzyme, Tables I and II","at a minimum, three times less toxic"
same,fold less active against the human enzyme than against the HIV enzyme (therapeutic index),human DNA polymerase α; human DNA polymerase vs HIV enzyme of Table I,greater than 100 fold
same,remaining activity at 100 µM,human DNA polymerase α,72 ± 3%
same,% Control at 100 μM ± S.D.,human DNA polymerase δ,69 ± 6%
same,IC50,human DNA polymerase δ,> 100 µM
same,activity at 0.1 µg/mL,HIV-1 (HTLV-IIIB); [2],139%
same,activity at 0.5 µg/mL,HIV-1 (HTLV-IIIB); [2],117%
same,activity at 2 µg/mL,HIV-1 (HTLV-IIIB); [2],90%
same,activity at 10 µg/mL,HIV-1 (HTLV-IIIB); [2],35%
same,activity at 50 µg/mL,HIV-1 (HTLV-IIIB); [2],0%
same,activity at 200 µg/mL,HIV-1 (HTLV-IIIB); [2],-3%
same,Inhibition Score,HIV-1 (HTLV-IIIB); drug conc. 10 μg/mL,** (**25-49% control p24)
same,Inhibition Score,HIV-1 (HTLV-IIIB); drug conc. 50 μg/mL,*** (***<25% control p24)
same,Inhibition Score,HIV-1 (HTLV-IIIB); drug conc. 200 μg/mL,*** (***<25% control p24)
same,viability at 72 h,[1]; drug conc. 0.1 μg/mL,113%
same,viability at 72 h,[1]; drug conc. 0.5 μg/mL,113%
same,viability at 72 h,[1]; drug conc. 2 μg/mL,110%
same,viability at 72 h,[1]; drug conc. 10 μg/mL,104%
same,viability at 72 h,[1]; drug conc. 50 μg/mL,93%
same,viability at 72 h,[1]; drug conc. 200 μg/mL,84%
same,Toxicity,uninfected H9 cells; drug conc. 0.1 μg/mL,non-T
same,Toxicity,uninfected H9 cells; drug conc. 0.5 μg/mL,non-T
same,Toxicity,uninfected H9 cells; drug conc. 2 μg/mL,non-T
same,Toxicity,uninfected H9 cells; drug conc. 10 μg/mL,non-T
same,Toxicity,uninfected H9 cells; drug conc. 50 μg/mL,non-T
same,Toxicity,uninfected H9 cells; drug conc. 200 μg/mL,non-T
same,relative ID50 values with respect to HSV-1,HSV-1,9
